In brackets after ≈: the same amount, converted by molar mass.
Tests used:
[1] = target: T1, cynomolgus monkey B2 receptor (Macaca fascicularis, UniProt A0A7N9CWN6); assay: Antagonist potency in cells expressing cynomolgus monkey B2 receptor; type: cell-based; settings: read-out: Kb value to antagonize BK activation
T1 sequence (A0A7N9CWN6 1-391): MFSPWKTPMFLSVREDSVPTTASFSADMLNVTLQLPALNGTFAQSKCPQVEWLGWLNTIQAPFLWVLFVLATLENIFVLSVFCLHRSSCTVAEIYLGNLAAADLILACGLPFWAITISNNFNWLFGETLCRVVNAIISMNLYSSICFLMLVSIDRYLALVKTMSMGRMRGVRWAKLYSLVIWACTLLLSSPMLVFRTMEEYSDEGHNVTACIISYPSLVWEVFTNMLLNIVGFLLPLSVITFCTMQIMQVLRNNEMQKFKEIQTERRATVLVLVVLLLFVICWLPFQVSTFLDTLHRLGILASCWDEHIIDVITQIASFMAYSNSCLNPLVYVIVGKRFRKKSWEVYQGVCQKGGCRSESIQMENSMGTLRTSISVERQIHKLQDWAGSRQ
Text: (§1) The bradykinin B2 receptor is well known for its species selective pharmacology (Paquet et al., Br. J. Pharmacol. (126), 1083-1090, 1999 (DOI: 10.1038/sj.bjp.0702403); Burgess et al., Br. J. Pharmacol. (129), 77-86, 2000 (DOI: 10.1038/sj.bjp.0703012)). […] Pharmacol. 11:916; DOI: 10.3389/fphar.2020.00916.

rat B2 receptor = target: T2, rat B2 receptor (Rattus norvegicus, UniProt P25023); assay: Antagonist potency in cells expressing rat B2 receptor; type: cell-based; settings: rat B2 receptor
T2 construct: expressed in transfected cells
T2 sequence (P25023 1-396): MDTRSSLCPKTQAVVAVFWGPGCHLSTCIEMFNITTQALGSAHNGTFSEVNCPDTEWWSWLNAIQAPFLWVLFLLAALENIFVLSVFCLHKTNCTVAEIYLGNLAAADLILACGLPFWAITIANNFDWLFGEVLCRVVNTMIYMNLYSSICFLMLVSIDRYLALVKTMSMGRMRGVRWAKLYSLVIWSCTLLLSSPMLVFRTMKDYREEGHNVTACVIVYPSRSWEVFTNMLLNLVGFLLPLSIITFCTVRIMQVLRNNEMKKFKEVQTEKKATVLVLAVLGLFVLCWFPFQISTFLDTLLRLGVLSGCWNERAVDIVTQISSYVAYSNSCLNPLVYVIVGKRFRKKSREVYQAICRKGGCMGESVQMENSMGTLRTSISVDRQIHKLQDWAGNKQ
Text: as §1

mouse B2 receptor = target: T3, mouse B2 receptor (Mus musculus, UniProt P32299); assay: Antagonist potency in cells expressing mouse B2 receptor; type: cell-based; settings: mouse B2 receptor
T3 construct: expressed in transfected cells
T3 sequence (P32299 1-392): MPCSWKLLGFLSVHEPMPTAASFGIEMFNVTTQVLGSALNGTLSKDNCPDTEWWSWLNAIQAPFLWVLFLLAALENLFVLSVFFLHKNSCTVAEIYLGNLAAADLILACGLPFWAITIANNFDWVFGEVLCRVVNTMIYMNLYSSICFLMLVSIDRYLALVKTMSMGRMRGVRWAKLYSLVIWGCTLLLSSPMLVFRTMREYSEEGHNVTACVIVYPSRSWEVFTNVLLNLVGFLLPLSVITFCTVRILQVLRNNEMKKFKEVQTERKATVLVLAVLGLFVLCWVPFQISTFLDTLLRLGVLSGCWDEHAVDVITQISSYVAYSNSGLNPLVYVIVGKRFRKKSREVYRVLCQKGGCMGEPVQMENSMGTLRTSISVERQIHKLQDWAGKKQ
Text: as §1

dog B2 receptor = target: T4, dog B2 receptor (Canis lupus familiaris, UniProt Q9BDQ4); assay: Antagonist potency in cells expressing dog B2 receptor; type: cell-based; settings: dog B2 receptor
T4 construct: expressed in transfected cells
T4 sequence (Q9BDQ4 1-392): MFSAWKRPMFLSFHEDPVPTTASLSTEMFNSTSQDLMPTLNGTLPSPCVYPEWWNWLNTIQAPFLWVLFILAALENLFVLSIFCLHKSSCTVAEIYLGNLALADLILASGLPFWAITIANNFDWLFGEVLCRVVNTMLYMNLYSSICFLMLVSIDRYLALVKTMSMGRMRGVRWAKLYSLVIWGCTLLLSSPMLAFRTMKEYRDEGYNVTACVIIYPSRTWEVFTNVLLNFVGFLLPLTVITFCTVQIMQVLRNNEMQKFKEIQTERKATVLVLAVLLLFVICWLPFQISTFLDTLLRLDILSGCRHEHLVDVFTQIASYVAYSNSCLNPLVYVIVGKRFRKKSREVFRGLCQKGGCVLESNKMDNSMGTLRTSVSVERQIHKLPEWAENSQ
Text: as §1

acute HAE attacks = settings: cited from earlier work
[2] = in vivo; cited from earlier work
BK B2 receptor = target: T5, BK B2 receptor (Homo sapiens, UniProt P30411); settings: cited from earlier work
T5 sequence (P30411 1-391): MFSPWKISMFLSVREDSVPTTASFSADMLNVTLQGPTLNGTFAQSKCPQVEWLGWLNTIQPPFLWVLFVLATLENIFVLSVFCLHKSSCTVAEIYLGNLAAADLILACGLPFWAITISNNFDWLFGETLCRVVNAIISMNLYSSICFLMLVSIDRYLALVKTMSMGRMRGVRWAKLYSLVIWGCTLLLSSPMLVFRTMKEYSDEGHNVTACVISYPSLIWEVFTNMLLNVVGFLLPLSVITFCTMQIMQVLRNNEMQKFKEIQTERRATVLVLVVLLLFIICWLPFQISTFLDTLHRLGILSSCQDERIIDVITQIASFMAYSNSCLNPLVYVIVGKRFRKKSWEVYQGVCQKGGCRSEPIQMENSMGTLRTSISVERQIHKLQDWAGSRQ

[3] = Drug-drug interaction trial with itraconazole, PK (Example 5)
Experimental: Thirteen healthy subjects were enrolled and completed the study.
On Days 4 to 8, subjects received once daily oral doses of 200 mg itraconazole one hour before start of a standard meal.
Trough plasma concentrations of itraconazole were determined by taking predose plasma samples on Days 4-7, to document exposure to itraconazole.

`NC(N)=NCCC[C@@H](N)C(=O)N[C@@H](CCCN=C(N)N)C(=O)N1CCC[C@H]1C(=O)N1C[C@H](O)C[C@H]1C(=O)NCC(=O)N[C@@H](Cc1cccs1)C(=O)N[C@@H](CO)C(=O)N1Cc2ccccc2C[C@@H]1C(=O)N1[C@H](C(=O)N[C@@H](CCCN=C(N)N)C(=O)O)C[C@@H]2CCCC[C@@H]21` [icatibant] showed a Kb [1] of 4.06 nM, a Kb (rat B2 receptor) of 5.6 nM and a Kb (mouse B2 receptor) of 4.4 nM. The Kb (dog B2 receptor) was 30.7 nM, the “time after which therapeutic response to an acute HAE attack wanes” value (acute HAE attacks; human, in vivo) was “approximately 6 hours” and the “onset of relief in acute HAE attacks” value (acute HAE attacks; placebo 19.8 h, Lumry et al. 2011) was 2.0 h. For the same molecule, the half-life [2] was 1.4 h, the “Time plasma level above EC85 at a 75% confidence level” value (BK B2 receptor; in vivo, sc) was 5.5 h and the “Time plasma level above EC85 at a 75% confidence level, DBP” value (BK B2 receptor; in vivo, sc) was 5.5 h. The “Time plasma level above EC85 at a 75% confidence level, MAP” value (BK B2 receptor; in vivo, sc) was 5.5 h, the “intrinsic PD potency at the K B2 receptor” value (BK B2 receptor; in vivo) was 8.9 nM and the “time plasma concentration above EC85 (85% effective) at 50% probability” value (BK B2 receptor; in vivo) was 5.5 h. For the same molecule, the “EC85 (published, BK challenge)” value (BK B2 receptor; plasma concentration, FDA Clinical Pharmacology Review Firazyr) was 0.0538 µg/mL (≈ 0.0412 µM).

For `CCC(C)n1ncn(-c2ccc(N3CCN(c4ccc(OCC5COC(Cn6cncn6)(c6ccc(Cl)cc6Cl)O5)cc4)CC3)cc2)c1=O` (stereo not drawn) [itraconazole], the “mean predose plasma concentration (Ctrough)” value ([3]; Day 4, itraconazole 200 mg dosing) was 386 ± 82.2 ng/mL and the “mean predose plasma concentration (Ctrough)” value ([3]; Day 7, itraconazole 200 mg dosing) was 597 ± 178 ng/mL.

From US12629363B2, “Prophylaxis and treatment of angioedema” (PHARVARIS GMBH, priority 2020, dated 2026)
